AC50 data for 30 compounds are collected here from patent publication US20260138961A1, “MODULATORS OF MITOCHONDRIAL DNA REPLICATION” (Pretzel Therapeutics, Inc., priority 2022, published 2026).

The experiment concerns the target T1, POLγA:G848S (Homo sapiens, UniProt P54098, G848S).
T1 sequence (P54098 1-1239 G848S): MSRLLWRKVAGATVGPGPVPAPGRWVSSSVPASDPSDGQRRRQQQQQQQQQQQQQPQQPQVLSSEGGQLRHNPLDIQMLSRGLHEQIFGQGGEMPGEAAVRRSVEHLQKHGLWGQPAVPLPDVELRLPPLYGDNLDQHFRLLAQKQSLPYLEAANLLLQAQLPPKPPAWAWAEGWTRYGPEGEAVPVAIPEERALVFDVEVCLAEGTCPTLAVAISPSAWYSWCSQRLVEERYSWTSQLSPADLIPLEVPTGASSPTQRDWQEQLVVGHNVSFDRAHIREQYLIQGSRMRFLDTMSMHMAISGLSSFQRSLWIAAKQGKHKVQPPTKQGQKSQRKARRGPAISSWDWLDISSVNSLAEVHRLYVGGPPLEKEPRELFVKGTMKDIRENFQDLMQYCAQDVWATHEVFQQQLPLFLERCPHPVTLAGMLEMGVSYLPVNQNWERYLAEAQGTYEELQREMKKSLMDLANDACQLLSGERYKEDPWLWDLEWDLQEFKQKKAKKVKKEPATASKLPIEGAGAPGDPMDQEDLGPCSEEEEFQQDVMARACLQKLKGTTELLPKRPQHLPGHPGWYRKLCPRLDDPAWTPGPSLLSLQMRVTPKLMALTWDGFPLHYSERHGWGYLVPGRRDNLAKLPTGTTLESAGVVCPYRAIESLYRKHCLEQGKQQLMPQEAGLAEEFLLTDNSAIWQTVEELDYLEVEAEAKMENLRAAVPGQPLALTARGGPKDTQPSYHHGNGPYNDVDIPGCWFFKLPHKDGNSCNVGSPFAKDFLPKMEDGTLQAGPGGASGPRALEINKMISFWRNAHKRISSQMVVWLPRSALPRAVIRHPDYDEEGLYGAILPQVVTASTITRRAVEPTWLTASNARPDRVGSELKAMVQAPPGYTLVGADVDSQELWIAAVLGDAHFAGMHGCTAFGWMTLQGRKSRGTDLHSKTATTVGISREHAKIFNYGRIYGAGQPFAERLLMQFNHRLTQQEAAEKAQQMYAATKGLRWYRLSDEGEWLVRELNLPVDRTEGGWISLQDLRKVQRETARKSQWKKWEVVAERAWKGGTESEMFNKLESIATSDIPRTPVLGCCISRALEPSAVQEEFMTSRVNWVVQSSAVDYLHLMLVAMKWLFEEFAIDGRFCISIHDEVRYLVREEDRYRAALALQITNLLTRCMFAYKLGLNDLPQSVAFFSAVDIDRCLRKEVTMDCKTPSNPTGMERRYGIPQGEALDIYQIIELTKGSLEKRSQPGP
T1 sequence (Q9UHN1 1-485 partner): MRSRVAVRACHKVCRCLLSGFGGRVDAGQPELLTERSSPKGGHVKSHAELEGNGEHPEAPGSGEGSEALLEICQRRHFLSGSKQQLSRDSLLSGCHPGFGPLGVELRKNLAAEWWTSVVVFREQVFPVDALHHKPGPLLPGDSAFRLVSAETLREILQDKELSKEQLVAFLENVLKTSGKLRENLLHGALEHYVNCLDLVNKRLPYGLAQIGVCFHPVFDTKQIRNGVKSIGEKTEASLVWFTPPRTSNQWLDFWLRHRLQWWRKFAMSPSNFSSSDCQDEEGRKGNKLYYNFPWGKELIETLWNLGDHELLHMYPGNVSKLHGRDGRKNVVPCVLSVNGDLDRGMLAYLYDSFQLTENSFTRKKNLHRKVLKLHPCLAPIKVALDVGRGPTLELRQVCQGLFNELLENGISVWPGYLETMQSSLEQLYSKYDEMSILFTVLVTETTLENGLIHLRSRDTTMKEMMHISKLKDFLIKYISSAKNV
The experiment can be described thus: DNA polymerization assay, POLγA:G848S mutant. The following applies: stimulation of polymerase activity, primed M13mp18 ssDNA, 37° C. 2 hours; read-out: G848S AC50. The experiment is classed as biochemical.
With `Cc1cc(S(=O)(=O)Nc2ccc3ccn(C(C)C)c3c2)c(C)cc1Cl` [Example 69, 4-chloro-N-(1-isopropyl-1H-indol-6-yl)-2,5-dimethylbenzenesulfonamide], the concentration at half-maximal activity (AC50) – broadly, the midpoint of the concentration-response curve, whichever way the signal moves – amounted to 14 µM.

In the case of `Cc1nc2ccc(NS(=O)(=O)c3cc(C)c(Cl)cc3C)cc2o1` [Example 70, 4-chloro-2,5-dimethyl-N-(2-methylbenzo[d]oxazol-6-yl)benzenesulfonamide], the AC50 was 49 µM.

For the compound `Cc1nc2cc(NS(=O)(=O)c3cc(C)c(Cl)cc3C)ccc2s1` [Example 71, 4-chloro-2,5-dimethyl-N-(2-methylbenzo[d]thiazol-5-yl)benzenesulfonamide], the concentration at half-maximal activity (AC50) is above 100 µM.

Consider `Cc1c(Cl)cccc1S(=O)(=O)Nc1csc(-c2ccccc2)n1` [Example 154, 3-chloro-2-methyl-N-(2-phenylthiazol-4-yl)benzenesulfonamide], for which the AC50 was above 100 µM.

With `COc1ccccc1-c1nc(NS(=O)(=O)c2cc(C)c(Cl)cc2C)cs1` [Example 155, 4-chloro-N-(2-(2-methoxyphenyl)thiazol-4-yl)-2,5-dimethylbenzenesulfonamide], the AC50 is 4 µM.

Turning to `Cc1cc(S(=O)(=O)Nc2nc(-c3ccccc3)co2)c(C)cc1Cl` [Example 157, 4-chloro-2,5-dimethyl-N-(4-phenyloxazol-2-yl)benzenesulfonamide], the AC50 was above 100 µM.

Consider `Cc1cc(S(=O)(=O)N[C@H]2CCN(c3ccccc3)C2)c(C)cc1Cl` [Example 158, (S)-4-chloro-2,5-dimethyl-N-(1-phenylpyrrolidin-3-yl)benzenesulfonamide], for which the AC50 was above 100 µM.

With `Cc1cc(S(=O)(=O)Nc2nc(-c3ccccc3)cn2C)c(C)cc1Cl` [Example 159, 4-chloro-2,5-dimethyl-N-(1-methyl-4-phenyl-1H-imidazol-2-yl)benzenesulfonamide], the half-maximal activity concentration (AC50) was above 100 µM.

Regarding `Cc1cc(S(=O)(=O)Nc2cccc(C(=O)N3CCC(F)(F)C3)c2)c(C)cc1Cl` [Example 160, 4-chloro-N-(3-(3,3-difluoropyrrolidine-1-carbonyl)phenyl)-2,5-dimethylbenzenesulfonamide], the AC50 stood at 14 µM.

Turning to `Cc1cc(S(=O)(=O)N[C@H]2CCCN(c3ccccc3)C2)c(C)cc1Cl` [Example 161, (S)-4-chloro-2,5-dimethyl-N-(1-phenylpiperidin-3-yl)benzenesulfonamide], the AC50 worked out at 31 µM.

Turning to `Cc1cc(S(=O)(=O)Nc2cccc(C(=O)N3CCCC34CC4)c2)c(C)cc1Cl` [Example 162, N-(3-(4-azaspiro[2.4]heptane-4-carbonyl)phenyl)-4-chloro-2,5-dimethylbenzenesulfonamide], the AC50 was 13 µM.

On to `CC(=O)N1CCC(c2nc(NS(=O)(=O)c3cc(C)c(Cl)cc3C)cs2)CC1` [Example 163, N-(2-(1-acetylpiperidin-4-yl)thiazol-4-yl)-4-chloro-2,5-dimethylbenzenesulfonamide], for which the AC50 came out at 37 µM.

With `Cc1cc(S(=O)(=O)Nc2csc(C(=O)N3CCCC3)n2)c(C)cc1Cl` [Example 166, 4-chloro-2,5-dimethyl-N-(2-(pyrrolidine-1-carbonyl)thiazol-4-yl)benzenesulfonamide], the AC50 came out at 0.6 µM.

For `Cc1cc(S(=O)(=O)Nc2csc(C3CCOCC3)n2)c(C)cc1Cl` [Example 167, 4-chloro-2,5-dimethyl-N-(2-(tetrahydro-2H-pyran-4-yl)thiazol-4-yl)benzenesulfonamide], the AC50 was 2 µM.

As to `Cc1cc(S(=O)(=O)Nc2cn(Cc3ccccc3)cn2)c(C)cc1Cl` [Example 168, N-(1-benzyl-1H-imidazol-4-yl)-4-chloro-2,5-dimethylbenzenesulfonamide], the AC50 is above 100 µM.

In the case of `Cc1cc(S(=O)(=O)Nc2cn(-c3ccccc3)cn2)c(C)cc1Cl` [Example 169, 4-chloro-2,5-dimethyl-N-(1-phenyl-1H-imidazol-4-yl)benzenesulfonamide], the concentration at half-maximal activity (AC50) was above 100 µM.

Take `Cc1cc(S(=O)(=O)Nc2cn(C)c(-c3ccccc3)n2)c(C)cc1Cl` [Example 170, 4-chloro-2,5-dimethyl-N-(1-methyl-2-phenyl-1H-imidazol-4-yl)benzenesulfonamide]: the AC50 is above 10 µM.

In the case of `Cc1cc(S(=O)(=O)Nc2cnn(-c3ccccc3)n2)c(C)cc1Cl` [Example 171, 4-chloro-2,5-dimethyl-N-(2-phenyl-2H-1,2,3-triazol-4-yl)benzenesulfonamide], the AC50 is above 10 µM.

Turning to `Cc1cc(S(=O)(=O)Nc2csc(C(=O)N(C)CC(N)=O)n2)c(C)cc1Cl` [Example 172, N-(2-amino-2-oxoethyl)-4-((4-chloro-2,5-dimethylphenyl)sulfonamido)-N-methylthiazole-2-carboxamide], the AC50 is above 10 µM.

On to `Cc1cc(S(=O)(=O)Nc2csc(-c3ccccn3)n2)c(C)cc1Cl` [Example 173, 4-chloro-2,5-dimethyl-N-(2-(pyridin-2-yl)thiazol-4-yl)benzenesulfonamide], for which the AC50 amounted to 2 µM.

On to `Cc1cc(S(=O)(=O)Nc2csc(C(=O)N3CCC[C@H]3C)n2)c(C)cc1Cl` [Example 174, (R)-4-chloro-2,5-dimethyl-N-(2-(2-methylpyrrolidine-1-carbonyl)thiazol-4-yl)benzenesulfonamide], for which the AC50 worked out at 0.4 µM.

With `Cc1cc(S(=O)(=O)Nc2csc(C(=O)N3CCC[C@@H]3C)n2)c(C)cc1Cl` [Example 175, (S)-4-chloro-2,5-dimethyl-N-(2-(2-methylpyrrolidine-1-carbonyl)thiazol-4-yl)benzenesulfonamide], the AC50 turned out to be 1 µM.

As for `Cc1cc(S(=O)(=O)Nc2csc(-c3ccncc3)n2)c(C)cc1Cl` [Example 176, 4-chloro-2,5-dimethyl-N-(2-(pyridin-4-yl)thiazol-4-yl)benzenesulfonamide], the AC50 turned out to be 0.4 µM.

In the case of `Cc1cc(S(=O)(=O)Nc2csc(C(=O)N(CC(N)=O)C3CCCC3)n2)c(C)cc1Cl` [Example 177, N-(2-amino-2-oxoethyl)-4-((4-chloro-2,5-dimethylphenyl)sulfonamido)-N-cyclopentylthiazole-2-carboxamide], the AC50 was above 100 µM.

On to `Cc1cc(S(=O)(=O)Nc2csc(-n3cccn3)n2)c(C)cc1Cl` [Example 178, N-(2-(1H-pyrazol-1-yl)thiazol-4-yl)-4-chloro-2,5-dimethylbenzenesulfonamide], for which the AC50 turned out to be 1 µM.

Consider `Cc1cc(S(=O)(=O)Nc2csc(C(=O)N(CC(N)=O)C3CCCCC3)n2)c(C)cc1Cl` [Example 179, N-(2-amino-2-oxoethyl)-4-((4-chloro-2,5-dimethylphenyl)sulfonamido)-N-cyclohexylthiazole-2-carboxamide], for which the concentration at half-maximal activity (AC50) is above 10 µM.

With `Cc1cc(S(=O)(=O)Nc2nc(-c3ccccc3)n(C)n2)c(C)cc1Cl` [Example 180, 4-chloro-2,5-dimethyl-N-(1-methyl-5-phenyl-1H-1,2,4-triazol-3-yl)benzenesulfonamide], the AC50 was above 10 µM.

In the case of `Cc1cc(S(=O)(=O)Nc2csc(-c3ccn(C)n3)n2)c(C)cc1Cl` [Example 181, 4-chloro-2,5-dimethyl-N-(2-(1-methyl-1H-pyrazol-3-yl)thiazol-4-yl)benzenesulfonamide], the AC50 is 0.7 µM.

With `Cc1cc(S(=O)(=O)Nc2csc(-c3cnn(C)c3)n2)c(C)cc1Cl` [Example 183, 4-chloro-2,5-dimethyl-N-(2-(1-methyl-1H-pyrazol-4-yl)thiazol-4-yl)benzenesulfonamide], the AC50 was found to be 0.5 µM.

Regarding `Cc1cc2cc(NS(=O)(=O)c3cc(C)c(Cl)cc3C)ccc2[nH]1` [Example 184, 4-chloro-2,5-dimethyl-N-(2-methyl-1H-indol-5-yl)benzenesulfonamide], the AC50 came to 24 µM.
